Test results as given in ChEMBL document CHEMBL4507291 (2021).

How the values were obtained:
[1] = target: Neuropeptide Y receptor type 2 (Homo sapiens) (UniProt P49146); test: Inhibition of Neuropeptide Y Y2 at 10 µM in the Eurofins-Panlabs radioligand binding assay (Eurofins_assay_257110); details: Compound concentration 10.0 uM
[2] = target: Mitogen-activated protein kinase 3 (Homo sapiens) (UniProt P27361); test: Inhibition of Protein Serine/Threonine Kinase, MAPK3 (ERK1) at 10 µM in the Eurofins-Panlabs enzyme assay (Eurofins_assay_171000); details: Compound concentration 10.0 uM
[3] = system: Tyrosine-protein kinase ABL1 (Homo sapiens), P00519 [G250E]; test: ABL1 G250E Kinase screen; details: Compound concentration 1.0 uM
[4] = target: Tyrosine-protein kinase receptor UFO (Homo sapiens) (UniProt P30530); test: AXL Kinase screen; details: Compound concentration 1.0 uM
Sequence of Tyrosine-protein kinase receptor UFO (Homo sapiens) (P30530 whole entry): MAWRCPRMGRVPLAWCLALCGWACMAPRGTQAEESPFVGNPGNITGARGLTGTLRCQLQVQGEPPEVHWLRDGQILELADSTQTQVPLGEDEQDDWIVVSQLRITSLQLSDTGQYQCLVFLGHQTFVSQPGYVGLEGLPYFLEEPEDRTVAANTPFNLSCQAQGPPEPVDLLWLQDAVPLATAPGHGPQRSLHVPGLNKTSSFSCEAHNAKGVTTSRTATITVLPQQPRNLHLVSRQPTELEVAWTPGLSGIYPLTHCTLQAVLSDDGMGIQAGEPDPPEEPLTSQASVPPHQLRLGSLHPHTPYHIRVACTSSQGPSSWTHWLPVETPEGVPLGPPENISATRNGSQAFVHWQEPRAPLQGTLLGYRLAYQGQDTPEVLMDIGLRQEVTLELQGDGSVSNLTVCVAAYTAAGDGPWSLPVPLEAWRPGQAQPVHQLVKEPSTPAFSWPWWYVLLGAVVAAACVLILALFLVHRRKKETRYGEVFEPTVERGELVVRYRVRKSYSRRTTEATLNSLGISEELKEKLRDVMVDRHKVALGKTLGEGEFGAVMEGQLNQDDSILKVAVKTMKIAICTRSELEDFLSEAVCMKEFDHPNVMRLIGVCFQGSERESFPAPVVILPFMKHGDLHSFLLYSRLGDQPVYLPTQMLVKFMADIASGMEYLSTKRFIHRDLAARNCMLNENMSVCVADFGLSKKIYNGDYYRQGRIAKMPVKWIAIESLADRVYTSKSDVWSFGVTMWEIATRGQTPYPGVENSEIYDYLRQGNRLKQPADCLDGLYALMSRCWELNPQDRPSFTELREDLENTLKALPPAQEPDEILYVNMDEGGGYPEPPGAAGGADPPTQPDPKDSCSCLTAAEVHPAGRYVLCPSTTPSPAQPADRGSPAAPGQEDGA

[5] = target: Cyclin-dependent kinase 2/cyclin A (Homo sapiens) (UniProt P24941+P20248+P78396); test: CDK2/cyclin A Kinase screen; assay type: protein-complex assay; details: Compound concentration 1.0 uM
[6] = target: Casein kinase I isoform alpha (Homo sapiens) (UniProt P48729); test: CSNK1A1 (CK1 alpha 1) Kinase screen; details: Compound concentration 1.0 uM
[7] = system: Fibroblast growth factor receptor 3 (Homo sapiens), P22607 [K650E]; test: FGFR3 K650E Kinase screen; details: Compound concentration 1.0 uM
[8] = target: Homeodomain-interacting protein kinase 2 (Homo sapiens) (UniProt Q9H2X6); test: HIPK2 Kinase screen; details: Compound concentration 1.0 uM
Sequence of Homeodomain-interacting protein kinase 2 (Homo sapiens) (Q9H2X6 whole entry, looked up): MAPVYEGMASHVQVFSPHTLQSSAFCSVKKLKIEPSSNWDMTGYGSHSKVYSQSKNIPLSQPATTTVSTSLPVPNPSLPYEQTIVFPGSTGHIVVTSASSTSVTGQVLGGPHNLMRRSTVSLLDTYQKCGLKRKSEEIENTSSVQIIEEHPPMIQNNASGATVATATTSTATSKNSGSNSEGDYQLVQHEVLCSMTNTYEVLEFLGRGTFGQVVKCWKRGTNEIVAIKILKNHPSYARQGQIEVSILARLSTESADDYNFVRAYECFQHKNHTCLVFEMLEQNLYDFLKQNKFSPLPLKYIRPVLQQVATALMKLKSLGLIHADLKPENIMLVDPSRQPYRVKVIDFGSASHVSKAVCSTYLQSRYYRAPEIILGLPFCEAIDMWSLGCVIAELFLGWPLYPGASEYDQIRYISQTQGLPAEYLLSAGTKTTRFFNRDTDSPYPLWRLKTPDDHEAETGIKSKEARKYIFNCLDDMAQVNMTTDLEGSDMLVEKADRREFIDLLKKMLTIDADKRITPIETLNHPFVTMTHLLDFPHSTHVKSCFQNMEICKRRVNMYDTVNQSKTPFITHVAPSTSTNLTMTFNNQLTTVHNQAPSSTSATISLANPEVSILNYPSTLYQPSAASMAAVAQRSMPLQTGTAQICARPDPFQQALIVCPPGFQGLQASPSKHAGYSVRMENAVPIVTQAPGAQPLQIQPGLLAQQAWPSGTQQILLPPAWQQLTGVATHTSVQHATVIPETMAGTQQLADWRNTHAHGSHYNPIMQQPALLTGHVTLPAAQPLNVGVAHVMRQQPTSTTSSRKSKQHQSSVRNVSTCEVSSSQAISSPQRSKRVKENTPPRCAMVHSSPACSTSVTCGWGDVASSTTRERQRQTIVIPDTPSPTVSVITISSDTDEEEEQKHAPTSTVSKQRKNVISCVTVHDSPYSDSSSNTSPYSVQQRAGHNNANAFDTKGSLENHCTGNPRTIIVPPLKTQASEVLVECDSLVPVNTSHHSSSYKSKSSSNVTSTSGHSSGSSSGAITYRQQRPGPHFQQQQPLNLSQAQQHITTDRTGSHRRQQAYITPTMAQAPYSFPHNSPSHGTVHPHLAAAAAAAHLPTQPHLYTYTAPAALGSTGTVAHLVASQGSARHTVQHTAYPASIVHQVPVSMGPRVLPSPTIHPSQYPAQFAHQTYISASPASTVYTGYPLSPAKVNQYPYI

[9] = system: Dual specificity mitogen-activated protein kinase kinase 6 (Homo sapiens), P52564 [S207E,T211E]; test: MAP2K6 (MKK6) S207E T211E Kinase screen; details: Compound concentration 1.0 uM
[10] = target: T1, Mitogen-activated protein kinase kinase kinase 7 (Homo sapiens) (UniProt O43318); test: MAP3K7/MAP3K7IP1 (TAK1-TAB1) Kinase screen; details: Compound concentration 1.0 uM
T1 sequence (whole entry): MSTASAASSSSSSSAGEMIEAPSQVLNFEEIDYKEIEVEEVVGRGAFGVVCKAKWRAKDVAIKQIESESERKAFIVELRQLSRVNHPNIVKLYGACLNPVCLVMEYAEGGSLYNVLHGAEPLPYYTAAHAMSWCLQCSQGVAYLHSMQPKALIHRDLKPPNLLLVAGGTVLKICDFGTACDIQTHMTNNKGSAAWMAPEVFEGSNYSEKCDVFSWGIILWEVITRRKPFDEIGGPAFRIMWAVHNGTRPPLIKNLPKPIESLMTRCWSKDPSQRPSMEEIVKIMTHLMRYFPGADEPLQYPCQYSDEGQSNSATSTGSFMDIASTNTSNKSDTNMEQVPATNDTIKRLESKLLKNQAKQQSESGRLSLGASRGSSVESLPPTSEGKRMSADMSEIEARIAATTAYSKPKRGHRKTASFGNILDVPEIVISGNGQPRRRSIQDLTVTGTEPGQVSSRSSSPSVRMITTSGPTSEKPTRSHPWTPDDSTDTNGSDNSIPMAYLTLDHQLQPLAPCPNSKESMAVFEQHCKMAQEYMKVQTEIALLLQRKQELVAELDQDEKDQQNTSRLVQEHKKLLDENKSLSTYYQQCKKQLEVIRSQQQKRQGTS

[11] = target: Serine/threonine-protein kinase PAK 3 (Homo sapiens) (UniProt O75914); test: PAK3 Kinase screen; details: Compound concentration 1.0 uM
[12] = target: Phosphatidylinositol 4-kinase beta (Homo sapiens) (UniProt Q9UBF8); test: PI4KB (PI4K beta) Kinase screen; details: Compound concentration 1.0 uM
[13] = target: Protein kinase C theta type (Homo sapiens) (UniProt Q04759); test: PRKCQ (PKC theta) Kinase screen; details: Compound concentration 1.0 uM
[14] = target: T2, cGMP-dependent protein kinase 1 (Homo sapiens) (UniProt Q13976); test: PRKG1 Kinase screen; details: Compound concentration 1.0 uM
T2 sequence (whole entry): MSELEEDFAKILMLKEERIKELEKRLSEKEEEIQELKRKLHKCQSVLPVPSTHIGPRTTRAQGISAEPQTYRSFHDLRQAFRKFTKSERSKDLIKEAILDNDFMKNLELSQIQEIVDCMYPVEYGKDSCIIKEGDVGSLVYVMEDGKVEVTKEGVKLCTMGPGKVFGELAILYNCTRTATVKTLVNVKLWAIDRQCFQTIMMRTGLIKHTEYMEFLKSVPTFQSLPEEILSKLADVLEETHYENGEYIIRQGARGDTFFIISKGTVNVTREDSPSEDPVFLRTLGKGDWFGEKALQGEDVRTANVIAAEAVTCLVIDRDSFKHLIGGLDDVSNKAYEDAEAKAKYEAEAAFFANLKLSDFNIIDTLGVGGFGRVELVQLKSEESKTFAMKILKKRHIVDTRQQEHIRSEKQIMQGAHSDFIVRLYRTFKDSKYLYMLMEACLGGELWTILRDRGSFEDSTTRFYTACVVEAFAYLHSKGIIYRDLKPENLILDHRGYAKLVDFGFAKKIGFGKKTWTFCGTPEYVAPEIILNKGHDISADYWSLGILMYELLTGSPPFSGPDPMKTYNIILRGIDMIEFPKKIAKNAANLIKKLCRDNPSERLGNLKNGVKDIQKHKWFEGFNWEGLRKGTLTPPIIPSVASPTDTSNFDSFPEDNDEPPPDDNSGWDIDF

[15] = target: Serine/threonine-protein kinase WNK2 (Homo sapiens) (UniProt Q9Y3S1); test: WNK2 Kinase screen; details: Compound concentration 1.0 uM
Sequence of Serine/threonine-protein kinase WNK2 (Homo sapiens) (Q9Y3S1 whole entry): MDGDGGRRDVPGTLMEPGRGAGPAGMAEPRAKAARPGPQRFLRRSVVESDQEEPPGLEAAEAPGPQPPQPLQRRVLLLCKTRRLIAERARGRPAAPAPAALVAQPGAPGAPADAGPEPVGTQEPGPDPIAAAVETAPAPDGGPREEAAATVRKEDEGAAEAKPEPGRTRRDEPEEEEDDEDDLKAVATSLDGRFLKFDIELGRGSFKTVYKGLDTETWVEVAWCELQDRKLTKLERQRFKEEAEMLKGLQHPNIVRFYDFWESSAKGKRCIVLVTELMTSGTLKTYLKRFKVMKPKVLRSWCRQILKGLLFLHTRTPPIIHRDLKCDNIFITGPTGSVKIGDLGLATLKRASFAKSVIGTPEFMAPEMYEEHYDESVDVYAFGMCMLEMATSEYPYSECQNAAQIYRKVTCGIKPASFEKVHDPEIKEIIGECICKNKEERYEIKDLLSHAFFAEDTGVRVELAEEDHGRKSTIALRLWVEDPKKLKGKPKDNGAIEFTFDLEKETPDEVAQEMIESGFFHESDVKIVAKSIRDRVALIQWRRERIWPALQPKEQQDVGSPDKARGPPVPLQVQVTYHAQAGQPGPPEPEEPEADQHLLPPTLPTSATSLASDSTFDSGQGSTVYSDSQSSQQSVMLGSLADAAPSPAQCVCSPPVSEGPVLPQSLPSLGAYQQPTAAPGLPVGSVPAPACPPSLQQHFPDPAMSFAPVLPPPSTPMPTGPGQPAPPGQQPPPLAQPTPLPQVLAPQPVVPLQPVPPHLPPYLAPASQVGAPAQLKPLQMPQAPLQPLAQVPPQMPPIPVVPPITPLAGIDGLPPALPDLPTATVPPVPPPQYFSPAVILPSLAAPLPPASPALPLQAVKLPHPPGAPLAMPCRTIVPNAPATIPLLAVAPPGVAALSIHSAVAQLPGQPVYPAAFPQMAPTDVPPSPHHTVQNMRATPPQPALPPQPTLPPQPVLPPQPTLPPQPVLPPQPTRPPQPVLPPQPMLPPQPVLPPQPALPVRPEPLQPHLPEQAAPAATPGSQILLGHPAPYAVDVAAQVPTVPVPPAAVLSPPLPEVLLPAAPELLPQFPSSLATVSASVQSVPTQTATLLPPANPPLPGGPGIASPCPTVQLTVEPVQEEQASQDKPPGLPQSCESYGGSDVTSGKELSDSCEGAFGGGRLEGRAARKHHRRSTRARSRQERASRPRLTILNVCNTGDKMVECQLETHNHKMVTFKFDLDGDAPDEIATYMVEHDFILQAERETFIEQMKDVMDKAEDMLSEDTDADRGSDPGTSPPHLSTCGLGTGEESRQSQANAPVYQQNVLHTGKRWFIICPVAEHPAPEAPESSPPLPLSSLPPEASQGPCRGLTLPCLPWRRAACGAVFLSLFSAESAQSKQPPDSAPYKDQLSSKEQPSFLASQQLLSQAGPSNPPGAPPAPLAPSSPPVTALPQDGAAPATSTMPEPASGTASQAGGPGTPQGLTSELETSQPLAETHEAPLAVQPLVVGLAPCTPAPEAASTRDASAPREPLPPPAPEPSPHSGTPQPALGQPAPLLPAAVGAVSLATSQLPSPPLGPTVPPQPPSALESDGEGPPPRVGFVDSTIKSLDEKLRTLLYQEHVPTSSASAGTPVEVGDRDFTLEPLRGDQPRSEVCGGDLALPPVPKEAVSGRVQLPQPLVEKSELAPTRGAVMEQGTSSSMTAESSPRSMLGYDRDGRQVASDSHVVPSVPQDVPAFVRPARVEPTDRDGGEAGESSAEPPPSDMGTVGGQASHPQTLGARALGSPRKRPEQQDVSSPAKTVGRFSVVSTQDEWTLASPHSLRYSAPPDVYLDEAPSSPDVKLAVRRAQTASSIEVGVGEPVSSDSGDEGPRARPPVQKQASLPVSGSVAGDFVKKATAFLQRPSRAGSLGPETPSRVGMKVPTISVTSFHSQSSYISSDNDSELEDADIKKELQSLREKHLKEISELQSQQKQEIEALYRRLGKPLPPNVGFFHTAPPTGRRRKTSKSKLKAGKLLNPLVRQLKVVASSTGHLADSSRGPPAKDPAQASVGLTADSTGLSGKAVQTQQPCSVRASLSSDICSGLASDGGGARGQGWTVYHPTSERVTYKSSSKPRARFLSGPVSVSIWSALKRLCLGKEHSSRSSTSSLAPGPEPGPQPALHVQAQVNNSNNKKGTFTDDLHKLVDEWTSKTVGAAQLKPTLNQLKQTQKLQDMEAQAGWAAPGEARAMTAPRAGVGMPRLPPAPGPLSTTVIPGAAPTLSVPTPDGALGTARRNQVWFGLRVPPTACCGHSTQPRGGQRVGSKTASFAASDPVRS

Caspase-3 (Homo sapiens) = Caspase-3 (Homo sapiens) (UniProt P42574); test: Peptidase, CASP3 (Caspase 3) Eurofins-Panlabs enzyme assay; details: Compound concentration 10.0 uM
[16] = target: Insulin receptor (Homo sapiens) (UniProt P06213); test: Protein Tyrosine Kinase, Insulin Receptor Eurofins-Panlabs enzyme assay; set-up: substrate with concentration; details: Compound concentration 10.0 uM
[17] = target: Kappa-type opioid receptor (Homo sapiens) (UniProt P41145); details: Compound concentration 10.0 uM
[18] = target: T3, 5-hydroxytryptamine receptor 1A (Homo sapiens) (UniProt P08908); details: Compound concentration 10.0 uM
T3 sequence (whole entry): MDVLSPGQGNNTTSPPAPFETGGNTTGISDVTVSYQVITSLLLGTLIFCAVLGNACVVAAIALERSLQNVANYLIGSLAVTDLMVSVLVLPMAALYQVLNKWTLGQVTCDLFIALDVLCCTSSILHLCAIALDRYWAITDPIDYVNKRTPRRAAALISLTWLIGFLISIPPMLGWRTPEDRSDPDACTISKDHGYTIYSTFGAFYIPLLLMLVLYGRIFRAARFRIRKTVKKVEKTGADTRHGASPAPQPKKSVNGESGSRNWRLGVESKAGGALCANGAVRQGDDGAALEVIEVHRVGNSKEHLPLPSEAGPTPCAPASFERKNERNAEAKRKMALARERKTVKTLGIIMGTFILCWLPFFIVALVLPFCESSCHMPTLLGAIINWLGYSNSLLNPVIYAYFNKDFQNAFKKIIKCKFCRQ

[19] = target: Sodium-dependent noradrenaline transporter (Homo sapiens, UniProt P23975)
Sequence of Sodium-dependent noradrenaline transporter (P23975 whole entry): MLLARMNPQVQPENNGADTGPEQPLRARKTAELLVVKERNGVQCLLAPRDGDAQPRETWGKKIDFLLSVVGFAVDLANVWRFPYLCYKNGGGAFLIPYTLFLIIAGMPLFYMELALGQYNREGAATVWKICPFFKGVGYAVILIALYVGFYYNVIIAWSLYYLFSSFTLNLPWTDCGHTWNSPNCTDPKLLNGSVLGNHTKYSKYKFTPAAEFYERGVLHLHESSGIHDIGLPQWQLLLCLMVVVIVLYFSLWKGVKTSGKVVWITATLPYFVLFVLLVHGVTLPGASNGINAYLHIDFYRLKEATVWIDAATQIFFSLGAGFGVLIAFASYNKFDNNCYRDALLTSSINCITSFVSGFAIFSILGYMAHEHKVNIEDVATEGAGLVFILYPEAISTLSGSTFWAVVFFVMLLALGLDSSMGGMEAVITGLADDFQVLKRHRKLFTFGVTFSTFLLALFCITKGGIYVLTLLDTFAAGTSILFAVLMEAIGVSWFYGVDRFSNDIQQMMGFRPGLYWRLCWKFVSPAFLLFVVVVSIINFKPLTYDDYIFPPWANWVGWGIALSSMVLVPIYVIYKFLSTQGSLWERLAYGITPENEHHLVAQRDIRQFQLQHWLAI

C[C@@H]1CN(c2cc(-c3n[nH]c4ccc(OC5(C)CC5)cc34)ncn2)C[C@H](C)O1 [MLi-2]
inhibition [1]: 1%
inhibition [2]: 33%
inhibition [3]: 4.45%
inhibition [4]: 4.79%
inhibition [5]: 1.13%
inhibition [6]: 1.89%
inhibition [7]: 3.43%
inhibition [8]: 5.33%
inhibition [9]: -1.97%
inhibition [10]: -4.42%
inhibition [11]: 10.9%
inhibition [12]: 1.46%
inhibition [13]: 2.46%
inhibition [14]: 0.194%
inhibition [15]: -1.69%
inhibition (Caspase-3 (Homo sapiens)): 12%
inhibition [16]: 9%
inhibition [17]: 19%
inhibition [18]: -6%
inhibition ([19]; Compound concentration 0.01 uM): 6%
inhibition ([19]; Compound concentration 0.1 uM): 8%
inhibition ([19]; Compound concentration 1.0 uM): 15%
inhibition ([19]; Compound concentration 10.0 uM): 77%
